Consider four compounds from ChEMBL document CHEMBL4138052, “Synthesis, characterization, solubilization, cytotoxicity and antioxidant activity of aminomethylated dihydroquercetin” (Medchemcomm, 2017).

≈ marks a conversion by molar mass, not a printed value. Calls of active or inactive are those of the source. The rule behind the calls is not given here.

Data set [1] can be described thus: Thermal stability of the compound assessed as drug degradation by measuring compound weight loss at 217 to 600 degC. The data set is classed as physicochemical. The settings on record: read-out: Drug degradation.
Data set [2] in a line: Solubility in water at pH 5.7 under nitrogen and sheltered from light condition incubated for 1 hr. The data set is classed as physicochemical.
Data set [3] is described as follows: Ratio of solubility of DHQ to solubility of test compound in water at pH 5.7 under nitrogen and sheltered from light condition incubated for 1 hr. It is filed as physicochemical. The note with it: buffer, pH 5.7, 1 h.
A short description of data set [4]: Dissolution of the compound at 0.12 mg measured at 38 mins by UV spectrophotometry. The data set is classed as physicochemical.
The nature of data set [5]: Dissolution of the compound at 0.12 mg measured at 360 mins by UV spectrophotometry. It is filed as physicochemical. The note with it: 6 h.
Data set [6] in a line: Solubility in PBS using micronized compound measured at 60 mins. It is filed as physicochemical.
The subject of data set [7] is HEK293. The data set can be described thus: Cytotoxicity in HEK293 cells assessed as reduction in cell survival incubated for 48 hrs by MTT assay. The data set is classed as cell-based. The settings on record: Homo sapiens, HEK293, 48 h. A general note: Tetrazolium assays rely on reduction of a dye to a coloured formazan, in cell work by metabolically active cells.

Data set [8] is described as follows: Safety index, ratio of EC50 for aristolochic acid to EC50 for test compound for cytotoxicity in HEK293 cells assessed as reduction in cell survival incubated for 48 hrs by MTT assay. The data set is classed as cell-based. The settings on record: human, read-out: Ratio EC50.
The subject of data set [9] is HEK293. The data set can be described thus: Stimulation of cell growth in HEK293 cells assessed as increase in cell survival at 2 to 360 uM incubated for 48 hrs by MTT assay. It is filed as functional, cell-based. The note with it: Homo sapiens.
Data set [10] relates to HEK293. Kind of data set: Stimulation of cell growth in HEK293 cells assessed as cell growth rate at 200 uM incubated for 48 hrs by MTT assay. The data set is classed as functional. The settings on record: Homo sapiens, HEK293, 48 h; read-out: Activity.
The test system of data set [11] is HEK293. Kind of data set: Potency index, ratio of cell growth stimulation activity of DHQ to cell growth stimulation activity of test compound for stimulation of cell growth in HEK293 cells assessed as cell growth rate at 200 uM incubated for 48 hrs by MTT assay. It is filed as functional, Homo sapiens.
The next data set relates to HeLa. Kind of data set: Cytotoxicity in human HeLa cells assessed as reduction in cell survival incubated for 48 hrs by MTT assay. It is filed as functional, cell-based.
Data set [12] is described as follows: Antioxidant activity assessed as DPPH radical scavenging activity at 0.03 to 0.06 mM incubated for 30 mins. The data set is classed as functional. On the technique in general: The DPPH test is a chemical assay of radical scavenging.
The nature of data set [13]: Antioxidant activity assessed as DPPH radical scavenging activity at 0.09 mM incubated for 30 mins. It is filed as functional.
The nature of data set [14]: Antioxidant activity assessed as DPPH radical scavenging activity using micronized compound. The data set is classed as functional.
The nature of data set [15]: Antioxidant activity assessed as ABTS radical scavenging activity at 0.1 mM incubated for 6 mins by spectrophotometry. It is filed as functional.
Data set [16] in a line: Antioxidant activity assessed as ABTS radical scavenging activity incubated for 6 mins by spectrophotometry. The data set is classed as functional.
Data set [17] can be described thus: Reducing power of the compound assessed as reducing Fe3+ power at 0.15 to 1.2 mM using potassium ferricyanide in pH 6.6 KH2PO4-K2HPO4 buffer by UV spectrophotometry. The data set is classed as physicochemical. The settings on record: pH 6.6, 1200 µM.
Data set [18] is described as follows: Thermal stability of the compound assessed as drug degradation by measuring compound weight loss at 30 to 100 degC. The data set is classed as physicochemical. The note with it: read-out: Drug degradation.
Data set [19] is described as follows: Thermal stability of the compound assessed as drug degradation by measuring compound weight loss at 247 to 600 degC. The data set is classed as physicochemical. The note with it: read-out: Drug degradation.

The solubility is how much of the substance goes into solution per volume. Low readings indicate a poorly soluble substance, high ones a readily soluble substance. By EC50 is commonly meant the midpoint of the concentration-response curve. By IC50 is commonly meant the concentration needed to halve the response being measured. In the case of `O=C(O)C1CCCN1Cc1c(O)c(CN2CCCC2C(=O)O)c2c(c1O)C(=O)[C@@H](O)[C@H](c1ccc(O)c(O)c1)O2` (some centres undefined), in [1], the degraded was determined as 64.8%. Further, the solubility at 1 h in data set [2] came out at 19500 µg/mL (≈ 35000 µM); in data set [6] it was 210 µg/mL (≈ 376 µM). Besides, the Ratio amounted to 16 in data set [3] and 2.5 with HEK293 [11]. In addition, the Activity in [4] is 87.1%; in [5], 83.78%; in the data set with HeLa it was “Dose-dependent effect”; in data set [13], 85.7%; in [15] it was 98.3%; in data set [17] it was “Dose-dependent effect”. Further, the EC50 with HEK293 [7] was determined as 820 µM; in the data set with HeLa, 138 µM. For the same compound, in data set [8], the selectivity ratio at 48 h came to 7. For the same compound, the result (in the data set with HEK293 [9]; in [12]) was Active. The growth at 200 µM with HEK293 [10] came out at 54.5%. The IC50 in data set [14] was determined as 22 µg/mL (≈ 39.4 µM); in [16], 42 µM.

On to `O=C1c2c(O)cc(O)cc2O[C@H](c2ccc(O)c(O)c2)[C@H]1O` [(+)-TAXIFOLIN], for which the degraded in [18] turned out to be 10.1%; in [19] it was 43.4%. The solubility at 1 h came out at 1200 µg/mL (≈ 3940 µM) in data set [2] and 20 µg/mL (≈ 65.7 µM) in data set [6]. The Activity in [4] was 13.8%; in the data set on HeLa, “Dose-dependent effect”; in data set [13] it was 88.7%; in data set [15], 84.9%; in data set [17], “Dose-dependent effect”. Further, the figures for the EC50 in the data set with HEK293 [7] and in the data set on HeLa were 671 µM and 125 µM, respectively. The selectivity ratio at 48 h in data set [8] came out at 5.6. In addition, the result (in the data set with HEK293 [9]; in [12]) was Active. For the same compound, the growth at 200 µM in the data set with HEK293 [10] came out at 22.6%. In addition, the results for the IC50 in [14] and in data set [16] were 500 µg/mL (≈ 1640 µM) and 48 µM, respectively.

In the case of `COc1cccc2c1cc([N+](=O)[O-])c1c(C(=O)O)cc3c(c12)OCO3` [ARISTOLOCHIC ACID], the EC50 in the data set on HEK293 [7] came out at 118 µM.

On to `O=C1O[C@H]([C@@H](O)CO)C(O)=C1O` [ASCORBIC ACID], for which, in data set [16], the IC50 was 42 µM. In addition, the Activity entry in data set [17] was “Dose-dependent effect”.
